How the values were obtained:
[1] = Acute toxicity in mice (intravenous LD50); settings: mouse, in vivo, read-out: acute toxicity (LD₅₀, intravenous)
Experimental: It is to be noted that the acute toxicity of the S-compound in mice (LD₅₀, intravenous) is 244 mg/kg.

[2] = Storage stability of aqueous solution (residual concentration); format: physicochemical; settings: 0.5 w/v% aqueous solution, pH range of 3 to 10, stored at 60°C for 1 or 2 weeks

C[C@H]1COc2c(N3CCN(C)CC3)c(F)cc3c(=O)c(C(=O)O)cn1c23 [S-compound, S-(-)-9-fluoro-3-methyl-10-(4-methyl-1-piperazinyl)-7-oxo-2,3-dihydro-7H-pyrido[1,2,3-de][1,4]benzoxazine-6-carboxylic acid]
LD50 [1]: 244 mg/kg
residual concentrations [2]: stably remained without decomposition

From patent EP0275515B1, “Aqueous pharmaceutical composition” (DAIICHI PHARMACEUTICAL CO., LTD., priority 1986, dated 1988)
